In patent US12215140B2, “Method of stabilizing protein contained in specimen and solution for stabilizing protein contained in specimen” (EIKEN KAGAKU KABUSHIKI KAISHA, priority 2018, dated 2025):

System: hemoglobin-haptoglobin complex
Test: Stability of hemoglobin (as hemoglobin-haptoglobin complex) in samples preserved at 37° C. in preservation solution containing 1 unit/L haptoglobin, Hb measured by latex agglutination method (Examples 1 to 7)
Design: species or system human
Conditions: arylboronic acid 15 mmol/L, 37° C.
Protocol: Preservation solutions were prepared with the addition of 40 mmol/L HEPES (pH 6.8), 0.1% BSA, 0.1% NaN3, 1 unit/L haptoglobin, and 0 to 100 mmol/L phenylboronic acid. Samples obtained by adding hemoglobin-added fecal specimens to the preservation solutions so that the fecal concentration would be 0.5% were preserved at 37° C. for 0, 7, 14, and 21 days. The fecal specimens were added with hemoglobin having an amount such that the hemoglobin concentration in the samples would be about 300 μg/L. Instead of the fecal specimens to which hemoglobin was added, samples containing no fecal specimens, in which hemoglobin was added to the preservation solutions so that the hemoglobin concentration in the samples would be 300 μg/L, were similarly preserved. The hemoglobin (Hb) concentrations (μg/L) in the preserved samples were measured by the latex agglutination method.
The concentrations of hemoglobin were measured using “OC-Hemodia (registered trademark) Auto III ‘EIKEN’” (available from EIKEN CHEMICAL CO., LTD.) as a measurement reagent and “OC-sensor DIANA” (available from EIKEN CHEMICAL CO., LTD.) as a measurement device. The above measurement reagent contains latex particles immobilizing an anti-human hemoglobin rabbit polyclonal antibody.
From the measured concentrations of hemoglobin, the recovery ratios (%) were calculated with respect to the hemoglobin concentrations immediately after the fecal specimens were added to the preservation solutions (i.e., concentrations 0 days after the fecal specimens were added).
(§1) For comparative examples, preservation solutions to which no arylboronic acid was added were prepared, and testing was conducted in the same manner.
(§2) The concentration of phenylboronic acid in the preservation solutions of Example 1 was fixed to 15 mmol/L, preservation solutions to which a sugar (sorbitol, sucrose, trehalose, glucose, fructose, or mannitol) was further added at 50 mmol/L or 100 mmol/L or preservation solutions to which no sugar was added were prepared, and testing was conducted in the same manner as in Example 1. For comparative examples, preservation solutions to which the phenylboronic acid and sugar were not added were prepared, and testing was conducted in the same manner.
Preservation solutions in which sorbitol, sucrose, trehalose, glucose, fructose, or mannitol was added at 100 mmol/L to the preservation solutions of Example 1 containing no phenylboronic acid were prepared, and testing was conducted in the same manner as in Example 1. For comparison, the same testing was conducted without adding these sugars.
as §2, with “sorbitol” for “a sugar (sorbitol, sucrose, trehalose, glucose, fructose, or mannitol)”, “was” for “was further”, “10 to 500” for “50”, “sucrose was added at 10 to 250” for “100”
as §1

| SMILES | Hb concentration (Feces 1, 0 days) [µg/L] | Recovery ratio with respect to Hb after 0 days (Feces 1, 0 days) [%] | Hb concentration (Feces 1, 7 days) [µg/L] | Recovery ratio with respect to Hb after 0 days (Feces 1, 7 days) [%] | Hb concentration (Feces 1, 14 days) [µg/L] | Recovery ratio with respect to Hb after 0 days (Feces 1, 14 days) [%] | Hb concentration (Feces 2, 0 days) [µg/L] | Recovery ratio with respect to Hb after 0 days (Feces 2, 0 days) [%] | Hb concentration (Feces 2, 7 days) [µg/L] | Recovery ratio with respect to Hb after 0 days (Feces 2, 7 days) [%] | Hb concentration (Feces 2, 14 days) [µg/L] | Recovery ratio with respect to Hb after 0 days (Feces 2, 14 days) [%] | Hb concentration (Feces 3, 0 days) [µg/L] | Recovery ratio with respect to Hb after 0 days (Feces 3, 0 days) [%] | Hb concentration (Feces 3, 7 days) [µg/L] | Recovery ratio with respect to Hb after 0 days (Feces 3, 7 days) [%] | Hb concentration (Feces 3, 14 days) [µg/L] | Recovery ratio with respect to Hb after 0 days (Feces 3, 14 days) [%] | Hb concentration (No feces, 0 days) [µg/L] | Recovery ratio with respect to Hb after 0 days (No feces, 0 days) [%] | other results |
| --- | --- | --- | --- | --- | --- | --- | --- | --- | --- | --- | --- | --- | --- | --- | --- | --- | --- | --- | --- | --- | --- |
| O=C(O)c1ccccc1B(O)O [2C-PBA, 2-carboxyphenylboronic acid] | 315 | 100 | 196 | 62 | 150 | 48 | 311 | 100 | 157 | 50 | 103 | 33 | 300 | 100 | 124 | 41 | 76 | 25 | 292 | 100 | Hb concentration (No feces, 7 days): 272 µg/L; Recovery ratio with respect to Hb after 0 days (No feces, 7 days): 93%; Hb concentration (No feces, 14 days): 264 µg/L; Recovery ratio with respect to Hb after 0 days (No feces, 14 days): 90% |
| O=C(O)c1ccc(B(O)O)cc1 [4C-PBA, 4-carboxyphenylboronic acid] | 312 | 100 | 252 | 81 | 234 | 75 | 315 | 100 | 239 | 76 | 227 | 72 | 300 | 100 | 219 | 73 | 194 | 65 | 279 | 100 | Hb concentration (No feces, 7 days): 275 µg/L; Recovery ratio with respect to Hb after 0 days (No feces, 7 days): 98%; Hb concentration (No feces, 14 days): 271 µg/L; Recovery ratio with respect to Hb after 0 days (No feces, 14 days): 97% |
